These results are taken from US12281149B2, “Modulators of G-protein coupled receptors” (priority 2021, dated 2025).

*1 amine or outer side, *2 acyl side, *3 side chain or, on linkers, in order; H or OH if unused. Where a SMILES comes first, the peptide text is derived from it. Side-chain parts run from the residue outwards. [ ]: non-standard residue; d: D form. The star is where a group is joined. Isobutyryl(2-(3-CN-5-F-Ph)) = CC(C)(C(=O)*)c1cc(F)cc(C#N)c1; Azetidine3carboxylic = O=C(C1CN([*:1])C1)[*:2]; C20 diacid = O=C(O)CCCCCCCCCCCCCCCCCCC(=O)*; γGlu = O=C(O)[C@H](CCC(=O)[*:2])N[*:1]; X13 = CC(C)(C(=O)*)c1cccc(F)c1F; X47 = O=C(CCNCc1cc(O)cc(Cl)c1)*; X11 = C[C@@H](C(=O)*)c1ccccc1; αMeL = CC(C)C[C@](C)(N)C(=O)O; Orn = NCCC[C@H](N)C(=O)O; AEEA = NCCOCCOCC(=O)O; Aib = CC(C)(N)C(=O)O; βAla = NCCC(=O)O

Holding throughout (format): cell-based
The target in test [1] is T1, GLP-1 receptor (Homo sapiens, UniProt P43220). The test is described as follows: HitHunter cAMP assay, GLP-1 receptor. The note with it: for EC50: CHO cells stably expressing human GLP-1 receptor, cAMP accumulation, 30 min, read-out: EC50 GLP-1R; for Emax: CHO cells, cAMP, normalized to maximum signal from GLP-1 (high) and DMSO (low), read-out: Emax GLP-1R.
T1 sequence (P43220 24-463): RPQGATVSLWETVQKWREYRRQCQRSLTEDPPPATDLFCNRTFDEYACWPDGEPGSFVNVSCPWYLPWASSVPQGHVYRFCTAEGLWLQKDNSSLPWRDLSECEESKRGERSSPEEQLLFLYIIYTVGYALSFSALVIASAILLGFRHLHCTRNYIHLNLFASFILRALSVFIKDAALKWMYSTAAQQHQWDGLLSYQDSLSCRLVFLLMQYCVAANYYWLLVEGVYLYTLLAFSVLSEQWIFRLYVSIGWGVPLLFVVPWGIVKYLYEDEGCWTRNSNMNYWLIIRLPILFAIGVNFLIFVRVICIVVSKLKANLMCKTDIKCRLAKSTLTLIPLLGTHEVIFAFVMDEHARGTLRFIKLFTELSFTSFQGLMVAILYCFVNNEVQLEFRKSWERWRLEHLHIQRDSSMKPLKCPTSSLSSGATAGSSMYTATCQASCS
Procedure: CAMP accumulation was measured in Chinese hamster ovary (CHO) cells stably expressing the human GLP-1 receptor or GIP receptor using the HitHunter CAMP Assay for Small Molecules Kit (Eurofins). Briefly, cells were grown in Ham's F12 Nutrient Mix with 10% FBS and lifted with Cell dissociation buffer, Enzyme free, PBS based (ThermoFisher). Cells were pelleted and resuspended in Hank's buffered saline solution with 10 mM Hepes and 625 μM 3-isobutyl-1-methylxanthine. The antibody reagent was then added to cells at a 1:2 ratio and 5 μL of mixture was seeded in 384-well small volume white assay plates, at 10,000 cells/well. Cells were then treated with 50 nl compound in DMSO using an ECHO 550 acoustic dispenser (Labcyte) in a 20-point dose response format in triplicate for 30 min. Cells were the lysed and detection reagents added according to the manufacturer's protocol. After overnight incubation, luminescence was measured using a Perkin Elmer Envision plate reader. Raw data was normalized to the maximum signal from GLP-1 or GIP (high) and DMSO (low). Dose response curves were analyzed using GraphPad Prism 9.0.
Test [2] deals with T2, GIP receptor (Homo sapiens, UniProt P48546).
T2 sequence (P48546 22-466): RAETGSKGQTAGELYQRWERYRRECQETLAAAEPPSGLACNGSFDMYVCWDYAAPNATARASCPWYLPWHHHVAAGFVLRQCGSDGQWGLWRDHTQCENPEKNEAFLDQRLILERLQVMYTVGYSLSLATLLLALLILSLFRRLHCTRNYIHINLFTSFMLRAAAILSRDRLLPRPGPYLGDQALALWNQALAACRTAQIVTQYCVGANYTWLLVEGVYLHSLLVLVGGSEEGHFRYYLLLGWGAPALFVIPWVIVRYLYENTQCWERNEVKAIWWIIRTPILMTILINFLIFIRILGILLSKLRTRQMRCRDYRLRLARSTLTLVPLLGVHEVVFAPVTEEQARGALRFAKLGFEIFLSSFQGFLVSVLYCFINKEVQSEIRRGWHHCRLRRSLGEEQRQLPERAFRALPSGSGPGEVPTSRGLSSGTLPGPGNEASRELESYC
In words: HitHunter cAMP assay, GIP receptor. The note with it: for EC50: CHO cells stably expressing GIP receptor, cAMP accumulation, 30 min, read-out: EC50 GIP-1R; for Emax: CHO cells, cAMP, normalized to maximum signal from GIP (high) and DMSO (low), read-out: Emax GIP-1R. (In general: Cyclic AMP is a second messenger, typically raised through Gs and lowered through Gi signalling.)

In test [3] the target is T2, GIP receptor. In words: PathHunter β-arrestin assay, GIP receptor. Also noted: host or cells: PathHunter CHO-K1 GIPR β-Arrestin Cell Line. The note with it: β-arrestin-2 recruitment, PathHunter CHO-K1 GIPR β-Arrestin Cell Line, 90 min at 37° C.; normalized to GIP; read-out: GIPR β Arrestin EC50.
Procedure: β-arrestin-2 recruitment for GLP-1 receptor or GIP receptor was measured using the DiscoverX PathHunter Detection Kit and PathHunter® CHO-K1 GLPIR β-Arrestin Cell Line or PathHunter® CHO-K1 GIPR β-Arrestin Cell Line, respectively). Briefly, cells were grown in Ham's F12 Nutrient Mix with 10% FBS and lifted with Cell dissociation buffer, Enzyme free, PBS based (ThermoFisher). Harvested cells were pelleted and resuspended in Assay Complete Cell Plating Reagent 2 and 5000 cells per well were plated in tissue culture treated 384-well small volume white assay plates. Plates were then incubated at 37° C. and 5% CO2 overnight. The media was then replaced with fresh Assay Complete Cell Plating Reagent 2. Cells were then treated with 10 nl compound in DMSO using an ECHO 550 acoustic dispenser (Labcyte) in a 20-point dose response format in duplicate for 90 min at 37° C. The assay was then completed according to the manufacturer's instructions. Luminescence was measured using a Perkin Elmer Envision plate reader. Raw data was normalized to the maximum signal from GLP-1 or GIP (high) and DMSO (low). Dose response curves were analyzed using GraphPad Prism 9.0.
Test [4] addresses T1, GLP-1 receptor. In words: PathHunter β-arrestin assay, GLP-1 receptor. Also noted: host or cells: PathHunter CHO-K1 GLP1R β-Arrestin Cell Line. The note with it: β-arrestin-2 recruitment, PathHunter CHO-K1 GLP1R β-Arrestin Cell Line, 90 min at 37° C.; normalized to GLP-1; read-out: GLP-1R β Arrestin EC50. (In general: Arrestin recruitment assays detect the binding of arrestin to an activated receptor.)

The EC50 is the concentration needed to bring the measured effect to its halfway point. Broadly, the Emax is the size of the effect at its maximum, as opposed to the concentration needed. `CC[C@H](C)[C@H](NC(=O)[C@H](CC(C)C)NC(=O)[C@H](Cc1c[nH]c2ccccc12)NC(=O)[C@H](CCC(N)=O)NC(=O)[C@@H](NC(=O)[C@H](Cc1ccccc1)NC(=O)[C@H](C)NC(=O)[C@H](CCCCNC(=O)COCCOCCNC(=O)COCCOCCNC(=O)CC[C@H](NC(=O)CCCCCCCCCCCCCCCCCCC(=O)O)C(=O)O)NC(=O)[C@H](CCC(N)=O)NC(=O)[C@H](C)NC(=O)[C@@H](NC(=O)[C@H](CCCCN)NC(=O)[C@H](CC(=O)O)NC(=O)[C@H](CC(C)C)NC(=O)C(C)(C)NC(=O)[C@@H](NC(=O)[C@H](CO)NC(=O)[C@H](Cc1ccc(O)cc1)NC(=O)[C@H](CC(=O)O)NC(=O)[C@H](CO)NC(=O)[C@@H](NC(=O)[C@H](Cc1ccccc1)NC(=O)[C@@H](NC(=O)CNC(=O)[C@H](CCC(=O)O)NC(=O)CCNC(=O)C(C)(C)c1cccc(F)c1F)[C@@H](C)O)[C@@H](C)O)[C@@H](C)CC)[C@@H](C)CC)C(C)C)C(=O)N[C@@H](C)C(=O)NCC(=O)NCC(=O)N1CCC[C@H]1C(=O)N[C@@H](CO)C(=O)N[C@@H](CO)C(=O)NCC(=O)N[C@@H](C)C(=O)N1CCC[C@H]1C(=O)N1CCC[C@H]1C(=O)N1CCC[C@H]1C(=O)N[C@@H](CO)C(N)=O` [Compound 147] ({X13-βAla}-EGTFTSDYSI[Aib]LDKIAQK([AEEA-AEEA-γGlu-C20 diacid])AFVQWLIAGGPSSGAPPPS-NH2): the concentration giving a half-maximal response (EC50) is 0.1 to 1 nM at GLP-1 receptor [1], 0.1 to 1 nM at GIP receptor [2], less than 1000 nM at GIP receptor [3] and more than 1000 nM at GLP-1 receptor [4]. For the same compound, the Emax at GLP-1 receptor [1] came out at 99%; at GIP receptor [2] it was 102%.

As to `CC[C@H](C)[C@H](NC(=O)[C@H](CC(C)C)NC(=O)[C@H](Cc1c[nH]c2ccccc12)NC(=O)[C@H](CCC(N)=O)NC(=O)[C@@H](NC(=O)[C@H](Cc1ccccc1)NC(=O)[C@H](C)NC(=O)[C@H](CCCCNC(=O)COCCOCCNC(=O)COCCOCCNC(=O)CC[C@H](NC(=O)CCCCCCCCCCCCCCCCCCC(=O)O)C(=O)O)NC(=O)[C@H](CCC(N)=O)NC(=O)[C@H](C)NC(=O)[C@@H](NC(=O)[C@H](CCCCN)NC(=O)[C@H](CC(=O)O)NC(=O)[C@H](CC(C)C)NC(=O)C(C)(C)NC(=O)[C@@H](NC(=O)[C@H](CO)NC(=O)[C@H](Cc1ccc(O)cc1)NC(=O)[C@H](CC(=O)O)NC(=O)[C@H](CO)NC(=O)[C@@H](NC(=O)[C@H](Cc1ccccc1)NC(=O)[C@@H](NC(=O)CNC(=O)[C@H](CCC(=O)O)NC(=O)CCNCc1cc(O)cc(Cl)c1)[C@@H](C)O)[C@@H](C)O)[C@@H](C)CC)[C@@H](C)CC)C(C)C)C(=O)N[C@@H](C)C(=O)NCC(=O)NCC(=O)N1CCC[C@H]1C(=O)N[C@@H](CO)C(=O)N[C@@H](CO)C(=O)NCC(=O)N[C@@H](C)C(=O)N1CCC[C@H]1C(=O)N1CCC[C@H]1C(=O)N1CCC[C@H]1C(=O)N[C@@H](CO)C(N)=O` [Compound 275] (X47-EGTFTSDYSI[Aib]LDKIAQK([AEEA-AEEA-γGlu-C20 diacid])AFVQWLIAGGPSSGAPPPS-NH2), the EC50 is 1 to 10 nM at GLP-1 receptor [1], 10 to 100 nM on GIP receptor [2], more than 1000 nM at GIP receptor [3] and more than 1000 nM at GLP-1 receptor [4]. Further, the values for the Emax on GLP-1 receptor [1] and at GIP receptor [2] were 99% and 17%, respectively.

For `CC[C@H](C)[C@H](NC(=O)[C@H](CC(C)C)NC(=O)[C@H](Cc1c[nH]c2ccccc12)NC(=O)[C@H](CCC(N)=O)NC(=O)[C@@H](NC(=O)[C@H](Cc1ccccc1)NC(=O)[C@H](C)NC(=O)[C@H](CCCCNC(=O)COCCOCCNC(=O)COCCOCCNC(=O)CC[C@H](NC(=O)CCCCCCCCCCCCCCCCCCC(=O)O)C(=O)O)NC(=O)[C@H](CCC(N)=O)NC(=O)[C@H](C)NC(=O)[C@@H](NC(=O)[C@H](CCCCN)NC(=O)[C@H](CC(=O)O)NC(=O)[C@H](CC(C)C)NC(=O)C(C)(C)NC(=O)[C@@H](NC(=O)[C@H](CO)NC(=O)[C@H](Cc1ccc(O)cc1)NC(=O)[C@H](CC(=O)O)NC(=O)[C@H](CO)NC(=O)[C@@H](NC(=O)[C@H](Cc1ccccc1)NC(=O)[C@@H](NC(=O)CNC(=O)[C@H](CCC(=O)O)NC(=O)CCNC(=O)[C@H](C)c1ccccc1)[C@@H](C)O)[C@@H](C)O)[C@@H](C)CC)[C@@H](C)CC)C(C)C)C(=O)N[C@@H](C)C(=O)NCC(=O)NCC(=O)N1CCC[C@H]1C(=O)N[C@@H](CO)C(=O)N[C@@H](CO)C(=O)NCC(=O)N[C@@H](C)C(=O)N1CCC[C@H]1C(=O)N1CCC[C@H]1C(=O)N1CCC[C@H]1C(=O)N[C@@H](CO)C(N)=O` [Compound 204] ({X11-βAla}-EGTFTSDYSI[Aib]LDKIAQK([AEEA-AEEA-γGlu-C20 diacid])AFVQWLIAGGPSSGAPPPS-NH2), the half-maximal effective concentration (EC50) was 1 to 10 nM at GLP-1 receptor [1], 10 to 100 nM at GIP receptor [2], more than 1000 nM at GIP receptor [3] and more than 1000 nM on GLP-1 receptor [4]. Besides, the Emax on GLP-1 receptor [1] came to 106%; at GIP receptor [2], 105%.

In the case of `CC[C@H](C)[C@H](NC(=O)[C@H](CC(C)C)NC(=O)[C@H](Cc1c[nH]c2ccccc12)NC(=O)[C@H](CCC(N)=O)NC(=O)[C@@H](NC(=O)[C@H](Cc1ccccc1)NC(=O)[C@H](C)NC(=O)[C@H](CCCCNC(=O)COCCOCCNC(=O)COCCOCCNC(=O)CC[C@H](NC(=O)CCCCCCCCCCCCCCCCCCC(=O)O)C(=O)O)NC(=O)[C@H](CCC(N)=O)NC(=O)[C@H](C)NC(=O)[C@@H](NC(=O)[C@H](CCCCN)NC(=O)[C@H](CC(=O)O)NC(=O)[C@H](CC(C)C)NC(=O)C(C)(C)NC(=O)[C@@H](NC(=O)[C@H](CO)NC(=O)[C@H](Cc1ccc(O)cc1)NC(=O)[C@H](CC(=O)O)NC(=O)[C@H](CO)NC(=O)[C@@H](NC(=O)[C@H](Cc1ccccc1)NC(=O)[C@@H](NC(=O)CNC(=O)[C@H](CCC(=O)O)NC(=O)C1CN(C(=O)C(C)(C)c2cc(F)cc(C#N)c2)C1)[C@@H](C)O)[C@@H](C)O)[C@@H](C)CC)[C@@H](C)CC)C(C)C)C(=O)N[C@@H](C)C(=O)NCC(=O)NCC(=O)N1CCC[C@H]1C(=O)N[C@@H](CO)C(=O)N[C@@H](CO)C(=O)NCC(=O)N[C@@H](C)C(=O)N1CCC[C@H]1C(=O)N1CCC[C@H]1C(=O)N1CCC[C@H]1C(=O)N[C@@H](CO)C(N)=O` [Compound 213] ({Isobutyryl(2-(3-CN-5-F-Ph))}-[Azetidine3carboxylic]EGTFTSDYSI[Aib]LDKIAQK([AEEA-AEEA-γGlu-C20 diacid])AFVQWLIAGGPSSGAPPPS-NH2), the EC50 was 100 to 1000 nM at GLP-1 receptor [1], 100 to 1000 nM at GIP receptor [2], more than 1000 nM at GIP receptor [3] and more than 1000 nM at GLP-1 receptor [4]. Also, the Emax is 78% at GLP-1 receptor [1] and 92% at GIP receptor [2].

As for `CC[C@H](C)[C@H](NC(=O)[C@H](CC(C)C)NC(=O)[C@H](Cc1ccc(O)cc1)NC(=O)[C@@H](CCC(=O)O)NC(=O)[C@@H](NC(=O)[C@H](Cc1ccccc1)NC(=O)[C@H](CCC(=O)O)NC(=O)C(C)(C)NC(=O)[C@H](CCC(N)=O)NC(=O)[C@H](C)NC(=O)[C@H](CCCCNC(=O)COCCOCCNC(=O)COCCOCCNC(=O)CC[C@H](NC(=O)CCCCCCCCCCCCCCCCCCC(=O)O)C(=O)O)NC(=O)[C@H](CCCN)NC(=O)[C@H](CC(=O)O)NC(=O)[C@H](CC(C)C)NC(=O)[C@](C)(CC(C)C)NC(=O)[C@@H](NC(=O)[C@H](CO)NC(=O)[C@H](Cc1ccc(O)cc1)NC(=O)[C@H](CC(=O)O)NC(=O)[C@H](CO)NC(=O)[C@@H](NC(=O)[C@H](Cc1ccccc1)NC(=O)[C@@H](NC(=O)CNC(=O)[C@H](CCC(=O)O)NC(=O)CCNC(=O)C(C)(C)c1cc(F)cc(C#N)c1)[C@@H](C)O)[C@@H](C)O)[C@@H](C)CC)[C@@H](C)CC)C(=O)N[C@@H](CCC(=O)O)C(=O)NCC(=O)NCC(=O)N1CCC[C@H]1C(=O)N[C@@H](CO)C(=O)N[C@@H](CO)C(=O)NCC(=O)N[C@@H](C)C(=O)N1CCC[C@H]1C(=O)N1CCC[C@H]1C(=O)N1CCC[C@H]1C(=O)N[C@@H](CO)C(N)=O` [Compound 134] ({Isobutyryl(2-(3-CN-5-F-Ph))-βAla}-EGTFTSDYSI[αMeL]LD[Orn]K([AEEA-AEEA-γGlu-C20 diacid])AQ[Aib]EFI[dE]YLIEGGPSSGAPPPS-NH2), the EC50 was 0.1 to 1 nM at GLP-1 receptor [1], 1 to 10 nM at GIP receptor [2], more than 1000 nM at GIP receptor [3] and more than 1000 nM at GLP-1 receptor [4]. For the same compound, the maximal response (Emax) was 102% on GLP-1 receptor [1] and 109% at GIP receptor [2].
